{"source": "paper PMC6130489", "about": "“Caffeic acid methyl and ethyl esters exert potential antidiabetic effects on glucose and lipid metabolism in cultured murine insulin-sensitive cells through mechanisms implicating activation of AMPK” (Pharmaceutical Biology, 2017)", "key": {"AMPK [1]": {"system": "AMPK", "experiment": "Western immunoblot phospho-AMPK in 3T3-L1 adipocytes", "type": "cell-based, mouse", "settings": "100 μM (Figure 4 legend), phospho-AMPK/pan-AMPK", "method": "(§1) Insulin (100 nM) or aminoimidazole carboxamide ribonucleotide (AICAR; 1 mM) were added to some vehicle-treated wells 30 min prior to the end of the treatment and served as the positives controls. Protein content was assayed by the bicinchoninic acid method (Thermo Scientific Pierce Protein Research, Rockford, IL) standardized to bovine serum albumin. Western immunoblotting was performed as described elsewhere (Eid et al. [2010]). Membranes were incubated overnight with phospho-AMPK, phospho-Akt, GLUT4, GLUT1 and β-actin antibodies (1:1000 dilution, Cell Signalling Technology, Danvers, MA), or with PPAR-γ, SREBP-1 (1:200, Santa Cruze Biotechnology, Santa Cruz, CA), followed by incubation with HRP-coupled secondary antibody (1:10,000) for 1 h. Immunoreactive bands were visualized by enhanced chemiluminescence and quantified by the Scion Image program (Scion Corporation, Frederick, MD). Experiments were repeated on 3 different passages of cells, each passage containing all conditions in parallel.\n(§2) Figure 4. CAME and CAEE inhibit C/EBP-β and PPAR-γ protein expression through mechanisms implicating AMPK pathway. Shown are representative blots of 3T3-adipocytes treated with the maximum nontoxic concentration (100 μM) of either CAME or CAEE. […] Data are expressed as C/EBP-β/β-actin (D), PPAR-γ/β-actin (E), phospho-Akt/pan-Akt (F) and phospho-AMPK/pan-AMPK (G). […]"}, "AMPK [2]": {"system": "AMPK", "experiment": "Western immunoblot phospho-AMPK in H4IIE cells", "type": "cell-based, rat", "settings": "50 μM, 18 h, AICAR 1 mM 30 min as positive control", "method": "(§3) L6 cells myotubes, H4IIE cells and 3T3-L1 adipocytes were treated with either CAME, CAEE (50 μM each) or vehicle (DMSO) for 18 h. Insulin (100 nM) or aminoimidazole carboxamide ribonucleotide (AICAR; 1 mM) were added to some vehicle-treated wells 30 min prior to the end of the treatment and served as the positives controls. Protein content was assayed by the bicinchoninic acid method (Thermo Scientific Pierce Protein Research, Rockford, IL) standardized to bovine serum albumin. Western immunoblotting was performed as described elsewhere (Eid et al. [2010]). […] Immunoreactive bands were visualized by enhanced chemiluminescence and quantified by the Scion Image program (Scion Corporation, Frederick, MD). […]\n(§4) Figure 2. […] (A) H4IIE hepatocytes were treated for 16 h with several concentrations (12.5, 25, 50 and100 μM) of either CAME or CAEE and G6Pase activity was determined colorimetrically using a commercial glucose assay kit as described under Materials and Methods. […] (D) Data are expressed as phospho-AMPK/pan-AMPK and are given as mean ± SEM from 3 experiments. *p < 0.05 indicates a significant difference, **(p < 0.01), ***(p < 0.001) from the vehicle control group."}, "Akt": {"system": "Akt", "experiment": "Western immunoblot phospho-Akt in H4IIE cells", "type": "cell-based, rat", "settings": "50 μM, 18 h", "method": "as §3, §4"}, "PPAR-γ": {"system": "PPAR-γ", "experiment": "Western immunoblot PPAR-γ in 3T3-L1 adipocytes", "type": "cell-based, mouse", "settings": "100 μM (Figure 4 legend)", "method": "as §1, §2"}, "G6Pase": {"target": "T1, G6Pase (Rattus norvegicus, UniProt P43428)", "T1 sequence (P43428 1-357)": "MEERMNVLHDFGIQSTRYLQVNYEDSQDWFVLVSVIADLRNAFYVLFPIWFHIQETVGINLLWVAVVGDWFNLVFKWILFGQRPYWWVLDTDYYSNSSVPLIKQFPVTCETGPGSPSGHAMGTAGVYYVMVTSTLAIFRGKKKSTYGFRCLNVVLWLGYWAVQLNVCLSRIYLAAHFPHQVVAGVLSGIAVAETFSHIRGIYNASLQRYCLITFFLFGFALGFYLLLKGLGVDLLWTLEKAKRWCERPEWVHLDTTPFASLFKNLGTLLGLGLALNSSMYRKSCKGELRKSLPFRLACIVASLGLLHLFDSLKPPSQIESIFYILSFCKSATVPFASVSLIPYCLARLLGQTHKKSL", "experiment": "Enzymatic activity of G6Pase in H4IIE cells", "type": "cell-based", "settings": "at 100 μM, relative to DMSO", "method": "At 90% confluence, H4-IIE cells were treated with 12.5, 25, 50 and 100 μM of either CAME or CAEE in serum free medium. Vehicle (0.1% DMSO)-treated and 100 nM insulin-treated cells served as the negative and positive control respectively. The activity of G6Pase was assessed by measuring the rate of glucose production in the presence of a non-limiting amount of glucose-6-phosphate (G6P) as described elsewhere (Nachar et al. [2013]). Total glucose production was measured using a commercial glucose assay kit (AutoKit Glucose; Wako Diagnostics, Richmond, VA). Protein content was measured using bicinchoninic acid (BCA) assay (Simpson [2008]) and G6Pase activity was expressed in relation to protein content.\nFigure 2. CAME and CAEE inhibit G6Pase by mechanisms involving activation of AMPK. (A) H4IIE hepatocytes were treated for 16 h with several concentrations (12.5, 25, 50 and100 μM) of either CAME or CAEE and G6Pase activity was determined colorimetrically using a commercial glucose assay kit as described under Materials and Methods. Data are expressed relative to vehicle control (0.1% DMSO, 0% inhibition). Insulin (100 nM) applied for similar treatment period served as the positive control. (B and C) Cells were treated with the optimal nontoxic concentration of either CAME, CAEE (50 μM each), or DMSO (0.1%) for 18 h, insulin (100 nM), AICAR (1 mM) applied for 30 min served as the positive controls. (B) The upper blot was probed with anti-phospho-AMPK antibody (Thr 172) and the lower blot was probed with anti-pan AMPK. (C) Blots were probed with antibodies against phospho-Akt (Ser 473) or pan-Akt. Immunoblots are representative of three independent experiments with similar results. (D) Data are expressed as phospho-AMPK/pan-AMPK and are given as mean ± SEM from 3 experiments. *p < 0.05 indicates a significant difference, **(p < 0.01), ***(p < 0.001) from the vehicle control group."}}}
{"smiles": "CCOC(=O)/C=C/c1ccc(O)c(O)c1", "note": "[CAEE, caffeic acid ethyl ester]", "values": [{"measurement": "phospho-AMPK, fold increase over basal levels", "setting": "AMPK [1]", "value": 2.3, "unit": "fold"}, {"measurement": "AMPK phosphorylation", "setting": "AMPK [2]", "value": "increase in AMPK phosphorylation to the same extent as the positive control AICAR"}, {"measurement": "phosphorylation of Akt", "setting": "Akt", "value": "did not increase"}, {"measurement": "protein level of PPAR-γ", "setting": "PPAR-γ", "value": "significantly reduced"}, {"measurement": "inhibition at 100 µM", "setting": "G6Pase", "value": "62.7 ± 6", "unit": "%"}]}
{"smiles": "COC(=O)/C=C/c1ccc(O)c(O)c1", "note": "[CAME, CA methyl ester]", "values": [{"measurement": "phospho-AMPK, fold increase over basal levels", "setting": "AMPK [1]", "value": 2.4, "unit": "fold"}, {"measurement": "AMPK phosphorylation", "setting": "AMPK [2]", "value": "increase in AMPK phosphorylation to the same extent as the positive control AICAR"}, {"measurement": "phosphorylation of Akt", "setting": "Akt", "value": "did not increase"}, {"measurement": "protein level of PPAR-γ", "setting": "PPAR-γ", "value": "significantly reduced"}, {"measurement": "inhibition at 100 µM", "setting": "G6Pase", "value": "62 ± 6.9", "unit": "%"}]}
